# From US8445409B2, “Use of 5-benzyloxymethyl-1,2-isoxazoline derivatives as a herbicide” (Moghu Research Center Ltd., priority 2007, dated 2013)
# Entries after “also recorded” stand apart in the source; their conditions may differ.
# Columns and labels:
# [1] = system: broadleaf weeds such as common cocklebur, Indian joint-vetch, velvetleaf, morningglory; assay: Upland pot test, broadleaf weeds as a group; format: in vivo
# Source text: (§1) To a rectangular plastic pot having a surface area of 300 cm^2, mixed soils including blend bed soil (Boonong, Horticultural Bed Soil No. 3) and sandy loam soil were filled (mixing ratio, 1:1). Seeds of the eight different types of weeds including gramineous weed such as barnyardgrass, large crabgrass, green foxtail, fall panicum, and broadleaf weed such as common cocklebur, velvetleaf, Indian joint-vetch, and morningglory were sown. To the other pot containing the same soil mixture, seeds of the five different types of crops including corn, soybean, cotton, wheat and rice were sown. Pots were kept in a greenhouse of which temperature was maintained at 25˜30° C. (day) or 15˜25° C. (night), and regularly watered.
# (§2) After fourteen days and when the crops and the weeds reached their three-leaf stage, the other set of a crop pot and a weed pot were prepared by the same method as described above. Then, “test substance” was sprayed thereto. In this case, spray treatment to the plants after they have grown for two weeks corresponded to post-emergence treatment while spray treatment to the seeds right after the sowing corresponded to pre-emergence treatment. Spray was carried out by using a track sprayer (R&D Sprayer, USA) equipped with a Teejet 8002 nozzle (Spraying Systems Co., USA). Spray volume was adjusted to 300 L/ha. The spray solution was prepared by dissolving the “test substance” in acetone and adding the same volume of 0.2% (v/v) Tween 20 aqueous solution. Dosage of the test substance was 500, 250, 125, 62.5 or 31.3 g/ha. Two weeks after the spray of the test substance, efficacy and phytotoxic effect to the crops and the weeds were visually measured based on a 0 to 10 scale (0: no efficacy, 10: completely killed).
# Large crabgrass = assay: Upland pot test, pre-/post-emergence spray, visual rating; format: in vivo, large crabgrass (DIGSA); conditions: 2 weeks after spray, 0-10 scale (10=completely killed)
# Source text: as §1, §2
# [2] = system: all types of the turfgrasses; assay: Turfgrass safety test, all turfgrasses as a group; format: in vivo
# Source text: Commercially available sod mats of zoysiagrass and bentgrass, Kentucky bluegrass, and perennial ryegrass were purchased. After cutting each turf sod mat in a size of 10 cm×20 cm, it was transplanted to a rectangular plastic pot having a surface area of 300 cm^2 wherein mixed soils including blend of a bed soil (Boonong, Horticultural Nursery Soil No. 3) and sandy loam soil were filled (mixing ratio, 1:1). After transplanting, the grass was mowed (0.5˜1.0 cm in height) once a week, and kept for one month in a greenhouse maintained at 25˜30° C. (day) or 15˜25° C. (night), then the test substance of the present invention was applied at dosage of 4, 2, 1 and 0.5 kg/ha. As a reference, Dithiopyr (32% EC, manufactured by Dongbu Hannong Chemical Company, KOREA) was applied at the recommended rate of 0.48 kg/ha, or twice or quadruple amount thereof, i.e., 0.96 and 1.92 kg/ha, respectively. Spray was made by a track sprayer equipped with a Teejet 8002 nozzle. Spray volume was adjusted to 2,000 L/ha, which was a typical value for an Asian (Korea and Japan) golf course. The spray solution was prepared by dissolving the “test substance” in acetone and adding the same volume of 0.2% (v/v) Tween 20 aqueous solution. Two, four or six weeks after the spray of the test substance, phytotoxicity to the turfgrass were visually evaluated based on 0 to 10 scale (0: no phytotoxic effect, 10: completely killed). The test was conducted in a randomized block design with a three replicates and the results were summarized in the following Table 2 is an average value of the replicates.
# Morningglory = assay: Upland pot test, pre-/post-emergence spray, visual rating; format: in vivo, morningglory (IPOSP); conditions: 2 weeks after spray, 0-10 scale (10=completely killed)
# Source text: as §1, §2
# Cotton = assay: as above; format: in vivo, cotton (GOSHI); conditions: for Visual measurement: Crops, Cotton: 2 weeks after spray, 0-10 scale (10=completely killed)
# Source text: as §1, §2
# Annual bluegrass = assay: Herbicidal activity at different growth stages, fresh weight suppression; format: in vivo; conditions: for Suppression ratio relative to the biomass of the untreated group: Annual bluegrass 1 leaf / Suppression ratio relative to the biomass of the untreated group: Annual bluegrass 2 leaf / Suppression ratio relative to the biomass of the untreated group: Annual bluegrass 3 leaf / Suppression ratio relative to the biomass of the untreated group: Annual bluegrass 4 leaf / Suppression ratio relative to the biomass of the untreated group: Annual bluegrass PRE: fresh weight two weeks after treatment
# Experimental: To a cup pot having a surface area of 100 cm^2 wherein mixed soils including blend bed soil (Boonong, Horticultural Bed Soil No. 3) and sandy loam soil were filled (mixing ratio, 1:1), seeds of large crabgrass and annual bluegrass were sown consecutively at an one week interval. The pots were moistened by sub-irrigation, and kept in a greenhouse maintained at 25˜30° C. (day) or 15˜25° C. (night). The said weeds were grown to various growth stages from pre-emergence to the four-leaf stage. […] Spray volume was adjusted to 2,000 L/ha. The method to spray of the test substance and prepare spray solutions were the same as described above. The reference herbicide was used after it was diluted with 0.2% (v/v) Tween 20 aqueous solution. The test was conducted in a randomized block design with three replicates. Two weeks after the treatment, plant parts remained above the pot soil surface were cut and the fresh weight was weighed. Results are given by a suppression ratio relative to the biomass that was obtained from the untreated group (see, Table 3).
# [3] = post-emergence foliar spray at three leaf stage, 31.2 g/ha
# [4] = post-emergence foliar spray at three leaf stage, 62.5 g/ha
# [5] = post-emergence foliar spray at three leaf stage, 125 g/ha
# [6] = post-emergence foliar spray at three leaf stage, 250 g/ha
# [7] = post-emergence foliar spray at three leaf stage, 500 g/ha
# [8] = pre-emergence soil treatment, 31.2 g/ha
# [9] = pre-emergence soil treatment, 62.5 g/ha
# [10] = pre-emergence soil treatment, 125 g/ha
# [11] = pre-emergence soil treatment, 250 g/ha
# [12] = pre-emergence soil treatment, 500 g/ha
compound,measurement,setting,value
"Cc1ccsc1C1=NOC(C)(COCc2c(F)cccc2F)C1 (stereo not shown) [test substance, 5-(2,6-difluorobenzyl)oxymethyl-5-methyl-3-(4-methylthiophen-5-yl)-1,2-isoxazoline]",Control of broadleaf weeds (in words),"[1]; post-emergence application, 500 g/ha",well controlled
same,Control of broad-leaf weeds (in words),"[1]; post-emergence treatment at three-leaf stage, FIG. 2",somewhat controlled showing a mild suppression effect
same,Effect on broadleaf weeds (in words),"[1]; pre-emergence treatment, FIG. 1",almost no effect; also recorded: not affected
same,"Visual measurement: Gramineous weed, Large crabgrass",Large crabgrass; [3],1
same,"Visual measurement: Gramineous weed, Large crabgrass",Large crabgrass; [4],3
same,"Visual measurement: Gramineous weed, Large crabgrass",Large crabgrass; [5],5
same,"Visual measurement: Gramineous weed, Large crabgrass",Large crabgrass; [6],6
same,"Visual measurement: Gramineous weed, Large crabgrass",Large crabgrass; [7],9
same,"Visual measurement: Gramineous weed, Large crabgrass",Large crabgrass; [8],1
same,"Visual measurement: Gramineous weed, Large crabgrass",Large crabgrass; [9],9
same,"Visual measurement: Gramineous weed, Large crabgrass",Large crabgrass; [10],9
same,"Visual measurement: Gramineous weed, Large crabgrass",Large crabgrass; [11],10
same,"Visual measurement: Gramineous weed, Large crabgrass",Large crabgrass; [12],10
same,Phytotoxicity to turfgrasses (in words),"[2]; 1~2 kg/ha, compared to Dithiopyr at 0.48 kg/ha",negligible phytotoxicity
same,Safety to all types of the turfgrasses (in words),[2]; 4 kg/ha,excellent safety
same,Phytotoxic effect to turfgrasses (in words),[2]; dosage the same or less than 0.5 kg/ha,almost no phytotoxic effect
same,"Visual measurement: Broadleaf weed, Morningglory",Morningglory; [3],0
same,"Visual measurement: Broadleaf weed, Morningglory",Morningglory; [4],0
same,"Visual measurement: Broadleaf weed, Morningglory",Morningglory; [5],0
same,"Visual measurement: Broadleaf weed, Morningglory",Morningglory; [6],1
same,"Visual measurement: Broadleaf weed, Morningglory",Morningglory; [7],3
same,"Visual measurement: Broadleaf weed, Morningglory",Morningglory; [8],0
same,"Visual measurement: Broadleaf weed, Morningglory",Morningglory; [9],0
same,"Visual measurement: Broadleaf weed, Morningglory",Morningglory; [10],1
same,"Visual measurement: Broadleaf weed, Morningglory",Morningglory; [11],2
same,"Visual measurement: Broadleaf weed, Morningglory",Morningglory; [12],2
same,"Visual measurement: Crops, Cotton",Cotton; [3],0
same,"Visual measurement: Crops, Cotton",Cotton; [4],0
same,"Visual measurement: Crops, Cotton",Cotton; [5],0
same,"Visual measurement: Crops, Cotton",Cotton; [6],0
same,"Visual measurement: Crops, Cotton",Cotton; [7],0
same,Safety to cotton (in words),Cotton; post-emergence treatment,safe
same,"Visual measurement: Crops, Cotton",Cotton; [8],0
same,"Visual measurement: Crops, Cotton",Cotton; [9],0
same,"Visual measurement: Crops, Cotton",Cotton; [10],0
same,"Visual measurement: Crops, Cotton",Cotton; [11],0
same,"Visual measurement: Crops, Cotton",Cotton; [12],0
same,Suppression ratio relative to the biomass of the untreated group: Annual bluegrass 1 leaf,Annual bluegrass; 1 kg/ha,97%
same,Suppression ratio relative to the biomass of the untreated group: Annual bluegrass 2 leaf,Annual bluegrass; 1 kg/ha,93%
same,Suppression ratio relative to the biomass of the untreated group: Annual bluegrass 3 leaf,Annual bluegrass; 1 kg/ha,66%
same,Suppression ratio relative to the biomass of the untreated group: Annual bluegrass 4 leaf,Annual bluegrass; 1 kg/ha,55%
same,Suppression ratio relative to the biomass of the untreated group: Annual bluegrass PRE,Annual bluegrass; 1 kg/ha,100%
same,Suppression ratio relative to the biomass of the untreated group: Annual bluegrass 1 leaf,Annual bluegrass; 2 kg/ha,99%
same,Suppression ratio relative to the biomass of the untreated group: Annual bluegrass 2 leaf,Annual bluegrass; 2 kg/ha,95%
same,Suppression ratio relative to the biomass of the untreated group: Annual bluegrass 3 leaf,Annual bluegrass; 2 kg/ha,69%
same,Suppression ratio relative to the biomass of the untreated group: Annual bluegrass 4 leaf,Annual bluegrass; 2 kg/ha,60%
same,Suppression ratio relative to the biomass of the untreated group: Annual bluegrass PRE,Annual bluegrass; 2 kg/ha,100%
same,Suppression ratio relative to the biomass of the untreated group: Annual bluegrass 1 leaf,Annual bluegrass; .12 kg/ha,37%
same,Suppression ratio relative to the biomass of the untreated group: Annual bluegrass 2 leaf,Annual bluegrass; .12 kg/ha,35%
same,Suppression ratio relative to the biomass of the untreated group: Annual bluegrass 3 leaf,Annual bluegrass; .12 kg/ha,0%
same,Suppression ratio relative to the biomass of the untreated group: Annual bluegrass 4 leaf,Annual bluegrass; .12 kg/ha,0%
same,Suppression ratio relative to the biomass of the untreated group: Annual bluegrass PRE,Annual bluegrass; .12 kg/ha,95%
same,Suppression ratio relative to the biomass of the untreated group: Annual bluegrass 1 leaf,Annual bluegrass; .25 kg/ha,95%
same,Suppression ratio relative to the biomass of the untreated group: Annual bluegrass 2 leaf,Annual bluegrass; .25 kg/ha,82%
same,Suppression ratio relative to the biomass of the untreated group: Annual bluegrass 3 leaf,Annual bluegrass; .25 kg/ha,18%
same,Suppression ratio relative to the biomass of the untreated group: Annual bluegrass 4 leaf,Annual bluegrass; .25 kg/ha,2%
same,Suppression ratio relative to the biomass of the untreated group: Annual bluegrass PRE,Annual bluegrass; .25 kg/ha,100%
same,Suppression ratio relative to the biomass of the untreated group: Annual bluegrass 1 leaf,Annual bluegrass; .5 kg/ha,96%
same,Suppression ratio relative to the biomass of the untreated group: Annual bluegrass 2 leaf,Annual bluegrass; .5 kg/ha,90%
same,Suppression ratio relative to the biomass of the untreated group: Annual bluegrass 3 leaf,Annual bluegrass; .5 kg/ha,61%
same,Suppression ratio relative to the biomass of the untreated group: Annual bluegrass 4 leaf,Annual bluegrass; .5 kg/ha,37%
same,Suppression ratio relative to the biomass of the untreated group: Annual bluegrass PRE,Annual bluegrass; .5 kg/ha,100%
same,Suppression of annual bluegrass,"Annual bluegrass; PRE to 2-leaf stage, 0.5 kg/ha or above",≥ 90%
same,Control of annual bluegrass (in words),Annual bluegrass; over three-leaf stage,suppressed but were not completely controlled
